Measured values: publication PMC5224920, “Assessing the mechanism and therapeutic potential of modulators of the human Mediator complex-associated protein kinases” (eLife, 2016)

System: 12 single or co-culture in vitro tissue models of primary cells
Assay: Culture/co-culture cell model panel, extracellular biomarkers (DiscoveRx); on CCL2/MCP-1: reference of the scale not given here; on CD38: reference of the scale not given here; on CD40: reference of the scale not given here; on CD69: reference of the scale not given here; on CXCL8/IL-8: reference of the scale not given here; on CXCL9/MIG: reference of the scale not given here; on IL-1alpha: reference of the scale not given here; on M-CSF: reference of the scale not given here; on PBMC Cytotoxicity: reference of the scale not given here
Format: cell-based, human
[1] = /Mphg Huvec+macrophages, 1.00E0 nM
[2] = /Mphg Huvec+macrophages, 1.00E1 nM
[3] = /Mphg Huvec+macrophages, 1.00E2 nM
[4] = /Mphg Huvec+macrophages, 1.00E3 nM
[5] = /Mphg Huvec+macrophages, 1.00E4 nM

In the case of `CN1c2ccc(-c3cncc(Cl)c3N3CCC4(CC3)CNC(=O)O4)cc2CS1(=O)=O` [CMPD2], the “Collagen III” value (/HDFNo, 1.00E3 nM) is reported as 0.037, the CCL2/MCP-1 (/HDFNo, 1.00E4 nM) is reported as 0.068 and the CD54/ICAM-1 (/HDFNo, 1.00E4 nM) is reported as 0.057. For the same compound, the CD106/VCAM-1 (/HDFNo, 1.00E4 nM) was 0.067, the “Collagen I” value (/HDFNo, 1.00E4 nM) was 0.071 and the “Collagen III” value (/HDFNo, 1.00E4 nM) was 0.073. It also gave a CCL2/MCP-1 [1] of 0.022, a CCL3/MIP-1alpha [1] of 0.000424 and a CD40 [1] of 0.00851. For the same compound, the CD69 [1] was 0.038, the CD106/VCAM-1 [1] was 0.069 and the CXCL8/IL-8 [1] was 0.053. For the same compound, the IL-1alpha [1] was 0.041, the M-CSF [1] was -0.019 and the SRB [1] was -0.007. For the same compound, the SRB-Mphg [1] was 0.018, the sIL-10 [1] was 0.074 and the CCL2/MCP-1 [2] was -0.032. For the same compound, the CCL3/MIP-1alpha [2] was -0.016, the CD40 [2] was -0.000836 and the CD69 [2] was 0.026. For the same compound, the CD106/VCAM-1 [2] was 0.052, the CXCL8/IL-8 [2] was -0.00092 and the IL-1alpha [2] was 0.023. For the same compound, the M-CSF [2] was -0.033, the SRB [2] was -0.013 and the SRB-Mphg [2] was 0.006. For the same compound, the sIL-10 [2] was 0.045, the CCL2/MCP-1 [3] was -0.044 and the CCL3/MIP-1alpha [3] was -0.018. The CD40 [3] was 0.014, the CD69 [3] was -0.029 and the CD106/VCAM-1 [3] was 0.050. It also gave a CXCL8/IL-8 [3] of 0.00849, an IL-1alpha [3] of 0.033 and a M-CSF [3] of -0.037. It also gave an SRB [3] of -0.017, an SRB-Mphg [3] of 0.018 and a sIL-10 [3] of -0.065. For the same compound, the CCL2/MCP-1 [4] was -0.085, the CCL3/MIP-1alpha [4] was -0.034 and the CD40 [4] was 0.00225. The CD69 [4] was 0.036, the CD106/VCAM-1 [4] was 0.021 and the CXCL8/IL-8 [4] was 0.012. For the same compound, the IL-1alpha [4] was 0.019, the M-CSF [4] was -0.046 and the SRB [4] was -0.017. The SRB-Mphg [4] was 0.008, the sIL-10 [4] was -0.137 and the CCL2/MCP-1 [5] was -0.107. It also gave a CCL3/MIP-1alpha [5] of -0.064, a CD40 [5] of -0.00011 and a CD69 [5] of 0.061. The CD106/VCAM-1 [5] was 0.027, the CXCL8/IL-8 [5] was 0.023 and the IL-1alpha [5] was 0.024. It also gave a M-CSF [5] of -0.054, an SRB [5] of -0.021 and an SRB-Mphg [5] of -0.007. For the same compound, the sIL-10 [5] was -0.266, the CCL2/MCP-1 (/TH2, 1.00E0 nM) was 0.046 and the CCL26/Eotaxin-3 (/TH2, 1.00E0 nM) was -0.081. The CD38 (/TH2, 1.00E0 nM) was -0.015, the CD40 (/TH2, 1.00E0 nM) was -0.063 and the CD69 (/TH2, 1.00E0 nM) was -0.031. For the same compound, the CD87/uPAR (/TH2, 1.00E0 nM) was -0.079, the CD106/VCAM-1 (/TH2, 1.00E0 nM) was 0.031 and the CXCL8/IL-8 (/TH2, 1.00E0 nM) was 0.026. For the same compound, the CXCL9/MIG (/TH2, 1.00E0 nM) was 0.021, the “Collagen IV” value (/TH2, 1.00E0 nM) was -0.017 and the “PBMC Cytotoxicity” value (/TH2, 1.00E0 nM) was -0.023. It also gave an SRB (/TH2, 1.00E0 nM) of -0.037, a sIL-17A (/TH2, 1.00E0 nM) of 0.106 and a sIL-17F (/TH2, 1.00E0 nM) of -0.026. The CCL2/MCP-1 (/TH2, 1.00E1 nM) was -0.013, the CCL26/Eotaxin-3 (/TH2, 1.00E1 nM) was -0.160 and the CD38 (/TH2, 1.00E1 nM) was -0.040. The CD40 (/TH2, 1.00E1 nM) was -0.104, the CD69 (/TH2, 1.00E1 nM) was -0.024 and the CD87/uPAR (/TH2, 1.00E1 nM) was -0.129. For the same compound, the CD106/VCAM-1 (/TH2, 1.00E1 nM) was 0.033, the CXCL8/IL-8 (/TH2, 1.00E1 nM) was -0.063 and the CXCL9/MIG (/TH2, 1.00E1 nM) was 0.013. For the same compound, the “Collagen IV” value (/TH2, 1.00E1 nM) was -0.009, the “PBMC Cytotoxicity” value (/TH2, 1.00E1 nM) was -0.008 and the SRB (/TH2, 1.00E1 nM) was -0.062. For the same compound, the sIL-17A (/TH2, 1.00E1 nM) was 0.100, the sIL-17F (/TH2, 1.00E1 nM) was -0.047 and the CCL2/MCP-1 (/TH2, 1.00E2 nM) was -0.044. For the same compound, the CCL26/Eotaxin-3 (/TH2, 1.00E2 nM) was -0.160, the CD38 (/TH2, 1.00E2 nM) was -0.008 and the CD40 (/TH2, 1.00E2 nM) was -0.119. The CD69 (/TH2, 1.00E2 nM) was -0.012, the CD87/uPAR (/TH2, 1.00E2 nM) was -0.098 and the CD106/VCAM-1 (/TH2, 1.00E2 nM) was 0.035. For the same compound, the CXCL8/IL-8 (/TH2, 1.00E2 nM) was -0.029, the CXCL9/MIG (/TH2, 1.00E2 nM) was 0.013 and the “Collagen IV” value (/TH2, 1.00E2 nM) was 0.016. The “PBMC Cytotoxicity” value (/TH2, 1.00E2 nM) was -0.007, the SRB (/TH2, 1.00E2 nM) was -0.066 and the sIL-17A (/TH2, 1.00E2 nM) was 0.165. The sIL-17F (/TH2, 1.00E2 nM) was 0.173, the CCL2/MCP-1 (/TH2, 1.00E3 nM) was -0.082 and the CCL26/Eotaxin-3 (/TH2, 1.00E3 nM) was -0.177. It also gave a CD38 (/TH2, 1.00E3 nM) of -0.024, a CD40 (/TH2, 1.00E3 nM) of -0.095 and a CD69 (/TH2, 1.00E3 nM) of -0.010. For the same compound, the CD87/uPAR (/TH2, 1.00E3 nM) was -0.180, the CD106/VCAM-1 (/TH2, 1.00E3 nM) was 0.017 and the CXCL8/IL-8 (/TH2, 1.00E3 nM) was -0.045. For the same compound, the CXCL9/MIG (/TH2, 1.00E3 nM) was 0.011, the “Collagen IV” value (/TH2, 1.00E3 nM) was -0.006 and the “PBMC Cytotoxicity” value (/TH2, 1.00E3 nM) was -0.011. It also gave an SRB (/TH2, 1.00E3 nM) of -0.062, a sIL-17A (/TH2, 1.00E3 nM) of 0.168 and a sIL-17F (/TH2, 1.00E3 nM) of -0.013. It also gave a CCL2/MCP-1 (/TH2, 1.00E4 nM) of -0.093, a CCL26/Eotaxin-3 (/TH2, 1.00E4 nM) of -0.166 and a CD38 (/TH2, 1.00E4 nM) of -0.035. It also gave a CD40 (/TH2, 1.00E4 nM) of -0.115, a CD69 (/TH2, 1.00E4 nM) of -0.043 and a CD106/VCAM-1 (/TH2, 1.00E4 nM) of 0.00327. The CXCL8/IL-8 (/TH2, 1.00E4 nM) was -0.042, the CXCL9/MIG (/TH2, 1.00E4 nM) was 0.000193 and the “Collagen IV” value (/TH2, 1.00E4 nM) was -0.031. The “PBMC Cytotoxicity” value (/TH2, 1.00E4 nM) was -0.017, the SRB (/TH2, 1.00E4 nM) was -0.065 and the sIL-17A (/TH2, 1.00E4 nM) was 0.146. The sIL-17F (/TH2, 1.00E4 nM) was -0.041, the CCL26/Eotaxin-3 (BENo, 1.00E0 nM) was 0.071 and the CD54/ICAM-1 (BENo, 1.00E0 nM) was 0.057. For the same compound, the CD87/uPAR (BENo, 1.00E0 nM) was 0.050, the CXCL8/IL-8 (BENo, 1.00E0 nM) was 0.030 and the CXCL9/MIG (BENo, 1.00E0 nM) was 0.080. It also gave a CXCL10/IP-10 (BENo, 1.00E0 nM) of 0.112, a CXCL11/I-TAC (BENo, 1.00E0 nM) of 0.105 and an EGFR (BENo, 1.00E0 nM) of 0.075. The HLA-DR (BENo, 1.00E0 nM) was 0.134, the IL-1alpha (BENo, 1.00E0 nM) was 0.066 and the “Keratin 8/18” value (BENo, 1.00E0 nM) was 0.059. It also gave an MMP-1 (BENo, 1.00E0 nM) of 0.060, an MMP-9 (BENo, 1.00E0 nM) of -0.001 and a PAI-I (BENo, 1.00E0 nM) of -0.018. The SRB (BENo, 1.00E0 nM) was 0.00452, the tPA (BENo, 1.00E0 nM) was 0.028 and the uPA (BENo, 1.00E0 nM) was 0.026. The CCL26/Eotaxin-3 (BENo, 1.00E1 nM) was 0.036, the CD54/ICAM-1 (BENo, 1.00E1 nM) was 0.042 and the CD87/uPAR (BENo, 1.00E1 nM) was 0.062. The CXCL8/IL-8 (BENo, 1.00E1 nM) was 0.077, the CXCL9/MIG (BENo, 1.00E1 nM) was 0.047 and the CXCL10/IP-10 (BENo, 1.00E1 nM) was 0.119. It also gave a CXCL11/I-TAC (BENo, 1.00E1 nM) of 0.092, an EGFR (BENo, 1.00E1 nM) of 0.077 and an HLA-DR (BENo, 1.00E1 nM) of 0.115. The IL-1alpha (BENo, 1.00E1 nM) was 0.048, the “Keratin 8/18” value (BENo, 1.00E1 nM) was 0.047 and the MMP-1 (BENo, 1.00E1 nM) was 0.063. For the same compound, the MMP-9 (BENo, 1.00E1 nM) was -0.010, the PAI-I (BENo, 1.00E1 nM) was -0.050 and the SRB (BENo, 1.00E1 nM) was 0.00136. For the same compound, the tPA (BENo, 1.00E1 nM) was 0.026, the uPA (BENo, 1.00E1 nM) was 0.026 and the CCL26/Eotaxin-3 (BENo, 1.00E2 nM) was 0.038. The CD54/ICAM-1 (BENo, 1.00E2 nM) was -0.034, the CD87/uPAR (BENo, 1.00E2 nM) was 0.110 and the CXCL8/IL-8 (BENo, 1.00E2 nM) was 0.017. For the same compound, the CXCL9/MIG (BENo, 1.00E2 nM) was 0.084, the CXCL10/IP-10 (BENo, 1.00E2 nM) was 0.121 and the CXCL11/I-TAC (BENo, 1.00E2 nM) was 0.082. For the same compound, the EGFR (BENo, 1.00E2 nM) was 0.066, the HLA-DR (BENo, 1.00E2 nM) was 0.075 and the IL-1alpha (BENo, 1.00E2 nM) was 0.078. The “Keratin 8/18” value (BENo, 1.00E2 nM) was 0.033, the MMP-1 (BENo, 1.00E2 nM) was 0.055 and the MMP-9 (BENo, 1.00E2 nM) was 0.015. It also gave a PAI-I (BENo, 1.00E2 nM) of -0.035, an SRB (BENo, 1.00E2 nM) of 0.002 and a tPA (BENo, 1.00E2 nM) of 0.038. For the same compound, the uPA (BENo, 1.00E2 nM) was 0.032, the CCL26/Eotaxin-3 (BENo, 1.00E3 nM) was 0.020 and the CD54/ICAM-1 (BENo, 1.00E3 nM) was -0.011. For the same compound, the CD87/uPAR (BENo, 1.00E3 nM) was 0.063, the CXCL8/IL-8 (BENo, 1.00E3 nM) was 0.028 and the CXCL9/MIG (BENo, 1.00E3 nM) was 0.087. For the same compound, the CXCL10/IP-10 (BENo, 1.00E3 nM) was 0.136, the CXCL11/I-TAC (BENo, 1.00E3 nM) was 0.044 and the EGFR (BENo, 1.00E3 nM) was 0.034. For the same compound, the HLA-DR (BENo, 1.00E3 nM) was 0.115, the IL-1alpha (BENo, 1.00E3 nM) was 0.047 and the “Keratin 8/18” value (BENo, 1.00E3 nM) was 0.017. The MMP-1 (BENo, 1.00E3 nM) was 0.039, the MMP-9 (BENo, 1.00E3 nM) was 0.056 and the PAI-I (BENo, 1.00E3 nM) was -0.090.
